Results reported in ChEMBL document CHEMBL1146593, “Constituents of the stem bark of Pongamia pinnata with the potential to induce quinone reductase” (J Nat Prod, 2003).
In brackets after ≈: the same amount, converted by molar mass.

How the values were obtained:
[1] = Inhibition of mouse Hepa-1c1c7 cells assessed as cell viability; format: cell-based
[2] = Chemoprevention index, ratio of IC50 for mouse Hepa-1c1c7 cells to drug level required to double NADPH:quinone reductase activity in mouse Hepa-1c1c7 cells; format: functional

Row | Compound | IC50 [1] [µg/mL] | Ratio [2]
1 | COc1cc(OC)c2c(c1C=O)O[C@H](c1ccccc1)CC2=O | > 10 | >3.9
2 | CC1=C[C@@H]2[C@@H](CC1)[C@](C)(O)CC[C@H]2C(C)C | > 5 | >2.2
3 | CO/C(=C\C(=O)c1c(OC)cc2c(c1OC)C=CC(C)(C)O2)c1ccccc1 | 9.6 (≈ 25.2 µM) | 8
4 | C=C(C)[C@@H](O)Cc1c(OC)cc(OC)c2c1O[C@H](c1ccccc1)CC2=O | 19.3 (≈ 52.4 µM) | 4.4
5 | COc1cc2c(c3oc(-c4ccccc4)cc(=O)c13)C=CC(C)(C)O2 [CANDIDIN] | 4.5 (≈ 13.5 µM) | 1
6 | COc1cc(OC)c2c(c1CC=C(C)C)O[C@H](c1ccccc1)CC2=O [CANDIDONE] | 4.1 (≈ 11.6 µM) | 0.9
7 | COc1cc2c(c(OC)c1C(=O)CC(=O)c1ccc3c(c1)OCO3)C=CC(C)(C)O2 [PONGAPINONE A] | 23.8 (≈ 58 µM) | 4.8
8 | COc1cc(OC)c2c(c1CC=C(C)C)O[C@H](c1ccc3c(c1)OCO3)CC2=O [PONGAPINONE B] | 19.1 (≈ 48.2 µM) | 7.6
9 | COc1cc2c(c(OC)c1C(=O)/C=C(\O)c1ccccc1)C=CC(C)(C)O2 [PRAECANSONE B] | 6.5 (≈ 17.7 µM) | 1.8
10 | C[S+]([O-])CCCCN=C=S (stereo not given) [SULFORAPHANE] | 2.1 (≈ 11.8 µM) | 24.1
